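The compound was tested at five concentrations on cells cultured in 96-well plates, with a 48-hour exposure period. Definition used: TGI = concentration required for complete inhibition of growth.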 Where a SMILES comes first, the peptide text is derived from it. [ ]: non-standard residue; d: D form. The star is where a group is joined. NMeV = CN[C@H](C(=O)O)C(C)C; X29 = COc1ccc(CN*)c(OC)c1; Octanoyl = CCCCCCCC(=O)*; dNMeA = CN[C@H](C)C(=O)O
What was measured:
Test in all cases: growth of human tumour cells (NCI), 48 h
A549 NSCLC = tested on: A549 NSCLC
DU-145 prostate = tested on: DU-145 prostate
HCT-116 colon = tested on: HCT-116 colon
HCT-15 colon = tested on: HCT-15 colon
HL-60(TB) leukemia = tested on: HL-60(TB) leukemia
HT29 colon = tested on: HT29 colon
M14 melanoma = tested on: M14 melanoma
MDA-MB-231 breast = tested on: MDA-MB-231 breast
MOLT-4 leukemia = tested on: MOLT-4 leukemia
OVCAR-3 ovarian = tested on: OVCAR-3 ovarian
OVCAR-8 ovarian = tested on: OVCAR-8 ovarian
RXF 393 renal = tested on: RXF 393 renal
SF-539 CNS = tested on: SF-539 CNS
SK-MEL-5 melanoma = tested on: SK-MEL-5 melanoma
SNB-19 CNS = tested on: SNB-19 CNS
T-47D breast = tested on: T-47D breast

Row | Compound | TGI (A549 NSCLC) | TGI (DU-145 prostate) | TGI (HCT-116 colon) | TGI (HCT-15 colon) | TGI (HL-60(TB) leukemia) | TGI (HT29 colon) | TGI (M14 melanoma) | TGI (MDA-MB-231 breast) | TGI (MOLT-4 leukemia) | TGI (OVCAR-3 ovarian) | TGI (OVCAR-8 ovarian) | TGI (RXF 393 renal) | TGI (SF-539 CNS) | TGI (SK-MEL-5 melanoma) | TGI (SNB-19 CNS) | TGI (T-47D breast)
1 | O=[N+]([O-])c1nccn1CCCNc1ccnc2cc(Cl)ccc12 | > 100 µM | > 100 µM | > 100 µM | > 100 µM | > 100 µM | 99.6 µM | > 100 µM | > 100 µM | > 100 µM | > 100 µM | > 100 µM | > 23 µM | > 88.7 µM | 10.9 µM | > 64.2 µM | > 89.9 µM
2 | CCCCn1c(N)c(-c2nc3ccccc3o2)sc1=S | 29.8 µM | 35.9 µM | 24.6 µM | 47.5 µM | > 100 µM | 78 µM | > 100 µM | 34.3 µM | > 100 µM | 33.9 µM | 37.7 µM | > 100 µM | 23.2 µM | 34.9 µM | > 100 µM | 47.9 µM
3 | COC(=O)[C@@H]1[C@H](OC(C)=O)CCC2[C@@]3(C[C@@H](c4ccoc4)O[C@@H]3OC)[C@H](C)CC[C@]21C(=O)OC (some centres not stated) | > 25 µM | > 25 µM | > 25 µM | > 25 µM | > 25 µM | > 25 µM | > 25 µM | > 25 µM | > 25 µM | > 25 µM | > 25 µM | > 25 µM | > 25 µM | > 25 µM | > 25 µM | > 25 µM
4 | CC1=NN(C(=O)c2ccncc2)C(=O)C1 | > 100 µM | > 100 µM | > 100 µM | > 100 µM | > 100 µM | > 100 µM | > 100 µM | > 100 µM | > 100 µM | > 100 µM | > 100 µM | > 100 µM | > 100 µM | > 100 µM | > 100 µM | > 100 µM
5 | CC1=NNC(=O)C1C1CC(c2c[nH]c3ccccc23)=NNC1=O (configuration not stated) | > 100 µM | > 100 µM | > 100 µM | > 100 µM | > 100 µM | > 100 µM | > 100 µM | > 100 µM | > 100 µM | > 100 µM | > 100 µM | > 100 µM | > 100 µM | > 100 µM | > 100 µM | > 100 µM
6 | Cc1ccccc1-n1c(=O)c2ncn(C3CCCO3)c2n(-c2ccccc2C)c1=S (configuration not stated) | > 100 µM | > 100 µM | > 100 µM | > 100 µM | > 100 µM | > 100 µM | > 100 µM | > 100 µM | > 100 µM | > 100 µM | > 100 µM | > 100 µM | > 100 µM | > 100 µM | > 100 µM | > 100 µM
7 | Cc1cc(S(=O)(=O)Nc2nc3ccccc3nc2-c2cccc([N+](=O)[O-])c2)c(S)cc1Cl | 38 µM | 36.8 µM | 35.2 µM | > 100 µM | 44.4 µM | 34.2 µM | 35.1 µM | > 100 µM | 73.5 µM | 30.6 µM | 80.9 µM | 74.4 µM | 38.1 µM | 28.4 µM | 39.9 µM | 38.9 µM
8 | COc1c(Br)cc2c(c1OC)C(Br)CCC(Br)(Br)C2=O (configuration not stated) | 16.2 µM | 9.64 µM | 0.853 µM | 1.63 µM | 3.09 µM | 3.71 µM | 0.539 µM | 8.32 µM | 5.73 µM | 2.91 µM | 1.53 µM | 1.82 µM | 5.25 µM | 6.26 µM | 14.1 µM | 4.84 µM
9 | N#Cc1sc2c(c1OC(=O)c1ccccc1)c(=O)n(-c1ccccc1)c(=S)n2-c1ccccc1 | > 100 µM | > 100 µM | 40.6 µM | 39.4 µM | 61.4 µM | > 100 µM | 40.6 µM | 59.2 µM | 51.8 µM | > 100 µM | > 100 µM | 32.7 µM | 47.8 µM | 28.5 µM | > 100 µM | 46.9 µM
10 | Oc1ccc(-c2cc(-c3cc(-c4ccc(O)cc4)no3)on2)cc1 | > 100 µM | > 100 µM | > 100 µM | > 100 µM | > 100 µM | > 100 µM | > 100 µM | > 100 µM | 9.52 µM | > 100 µM | > 100 µM | > 100 µM | > 49.7 µM | > 100 µM | > 100 µM | > 100 µM
11 | CCCCCCCC(=O)N[C@H](C(=O)N[C@H](C(=O)N(C)[C@H](C(=O)N1CCC[C@H]1C(=O)N(C)[C@H](C)C(=O)NCc1ccc(OC)cc1OC)C(C)C)C(C)C)C(C)C (Octanoyl-VV[NMeV]P[dNMeA]-X29) | 99 µM | > 100 µM | > 50.1 µM | > 100 µM | 11.3 µM | > 85.2 µM | > 68.1 µM | 35.5 µM | > 90.4 µM | > 100 µM | > 100 µM | 46.1 µM | > 60.4 µM | 13 µM | > 100 µM | > 100 µM
12 | CC(=O)c1ccc2c(c1)CC1(C2)Cc2cc3c(cc2C1=O)CCC3 (configuration not stated) | 59.5 µM | 61.9 µM | 44 µM | 95.9 µM | 35.8 µM | > 100 µM | 28.9 µM | 49.6 µM | 21.8 µM | 40.6 µM | 36.1 µM | 90.4 µM | 72.4 µM | 22.5 µM | > 100 µM | 88.5 µM

From PubChem BioAssay (NCI)
